Test results taken from the CheMixHub viscosity set.
“And” between values parts separate entries of the source, which are not always exact repeats. Equal values may be shown once.

Experiment: xn = mol fraction of the nth substance listed

CCCCCCCCCO + CO
viscosity [mPa·s], 101 kPa
Details	298.15 K	308.15 K	318.15 K
x2 = 0.05	8.515	6.146	4.44
x2 = 0.1	7.93	5.765	4.2
x2 = 0.15	7.356	5.387	3.958
x2 = 0.2	6.793	5.013	3.716
x2 = 0.25	6.245	4.644	3.474
x2 = 0.3	5.711	4.281	3.233
x2 = 0.35	5.193	3.925	2.994
x2 = 0.4	4.694	3.579	2.756
x2 = 0.45	4.214	3.242	2.521
x2 = 0.5	3.754	2.916	2.29
x2 = 0.55	3.317	2.603	2.063
x2 = 0.6	2.902	2.302	1.841
x2 = 0.65	2.511	2.016	1.625
x2 = 0.7	2.146	1.744	1.417
x2 = 0.75	1.807	1.488	1.215
x2 = 0.8	1.496	1.248	1.023
x2 = 0.85	1.212	1.025	0.8404
x2 = 0.9	0.9583	0.8198	0.6684
x2 = 0.95	0.7342	0.6326	0.508

NC(CO)C(=O)[O-].[K+] (configuration not stated) + O
viscosity [mPa·s], 100 kPa
Details	x1 = 0.009	x1 = 0.019	x1 = 0.029	x1 = 0.039	x1 = 0.049	x1 = 0.06
303.15 K	0.9271	1.088	1.308	1.575	1.929	2.448
308.15 K	0.8325	0.9764	1.175	1.412	1.719	2.172
313.15 K	0.7628	0.8877	1.067	1.279	1.55	1.949
318.15 K	0.696	0.8049	0.9686	1.159	1.398	1.752
323.15 K	0.6347	0.74	0.8896	1.061	1.275	1.59

CC(=O)N1CCOCC1 + CCC(C)O
viscosity [mPa·s], 101 kPa
Details	293.15 K	303.15 K	313.15 K	323.15 K
x1 = 0.0516	5.054	4.116	3.093	2.101
x1 = 0.1322	6.732	5.737	4.626	3.598
x1 = 0.2217	8.167	7.11	5.901	4.833
x1 = 0.2879	8.981	7.878	6.596	5.499
x1 = 0.3188	9.257	8.132	6.816	5.706
x1 = 0.3996	9.785	8.603	7.199	6.052
x1 = 0.4597	10.02	8.8	7.33	6.157
x1 = 0.5084	–	–	7.42	–
x1 = 0.5094	10.2	8.944	–	6.225
x1 = 0.5496	10.27	8.985	7.418	6.204
x1 = 0.6127	10.29	8.96	7.323	6.082
x1 = 0.6444	10.11	8.757	7.086	5.83
x1 = 0.6915	10.11	8.728	7.005	5.728
x1 = 0.7516	9.956	8.527	6.739	5.436
x1 = 0.7984	9.588	8.127	6.288	4.964
x1 = 0.8599	9.409	7.905	5.998	4.647
x1 = 0.9127	8.959	7.419	5.454	4.079
x2 = 0.0157	8.843	7.252	5.209	3.918

CC(N)=O + O
101 kPa
Details	viscosity [mPa·s]
293.15 K, x1 = 0.0438	1.015
293.15 K, x1 = 0.0791	1.178
293.15 K, x1 = 0.1282	1.416
295.65 K, x1 = 0.02282	1.222
295.65 K, x1 = 0.03616	1.155
295.65 K, x1 = 0.03629	1.149
295.65 K, x1 = 0.0429	1.262
295.65 K, x1 = 0.07191	1.716
295.65 K, x1 = 0.07575	1.47
298.15 K, x1 = 0.0024	0.89
298.15 K, x1 = 0.0185	0.991
298.15 K, x1 = 0.06152	1.232
298.15 K, x1 = 0.09656	1.458
298.15 K, x1 = 0.1531	1.875
298.15 K, x1 = 0.4073	4.442
303 K, x1 = 0.0363	1.149
303 K, x1 = 0.0438	1.015
303 K, x1 = 0.0791	1.178
303 K, x1 = 0.0928	1.416

O=C[C@H](O)[C@@H](O)[C@@H](O)CO + O
viscosity, 101 kPa
Details	293.15 K	298.15 K	303.15 K	308.15 K	313.15 K	318.15 K
x1 = 0.0031	1.059 mPa·s	–	0.8425 mPa·s	0.7555 mPa·s	0.6857 mPa·s	0.6277 mPa·s
x1 = 0.006	1.122 mPa·s and 1.122 mPa·s (2×)	0.9982 mPa·s and 0.9982 mPa·s (2×)	0.8927 mPa·s and 0.8927 mPa·s (2×)	0.7947 mPa·s and 0.7947 mPa·s and 0.7947 mPa·s	0.7187 mPa·s and 0.7187 mPa·s (2×)	0.6585 mPa·s and 0.6585 mPa·s and 0.6585 mPa·s
x1 = 0.0063	1.122 mPa·s	0.9982 mPa·s	0.8927 mPa·s	0.7947 mPa·s	0.7187 mPa·s	0.6585 mPa·s
x1 = 0.013	1.232 mPa·s and 1.232 mPa·s (2×)	–	0.9886 mPa·s and 0.9886 mPa·s (2×)	0.8863 mPa·s and 0.8863 mPa·s (2×)	0.7996 mPa·s and 0.7996 mPa·s (2×)	0.7229 mPa·s and 0.7229 mPa·s and 0.7229 mPa·s

CCC1CCCCC1 + CCCCCCCC(=O)OCC
viscosity [mPa·s], 100 kPa
Details	x1 = 0.1001	x1 = 0.2	x1 = 0.3	x1 = 0.3998	x1 = 0.5	x1 = 0.5997	x1 = 0.7	x1 = 0.8001	x1 = 0.9
293.15 K	1.446	1.359	1.278	1.201	1.128	1.058	0.992	0.929	0.877
298.15 K	1.328	1.254	1.182	1.113	1.046	0.983	0.924	0.869	0.821
303.15 K	1.224	1.156	1.09	1.03	0.971	0.916	0.862	0.812	0.768
308.15 K	1.132	1.071	1.012	0.957	0.903	0.854	0.808	0.762	0.72
313.15 K	1.039	0.985	0.932	0.882	0.835	0.792	0.749	0.709	0.674
318.15 K	0.977	0.927	0.879	0.833	0.79	0.748	0.71	0.672	0.64
323.15 K	0.902	0.856	0.812	0.771	0.733	0.696	0.661	0.625	0.595

O=C(Nc1ccccc1)Nc1ccccc1 + c1ccncc1
298.15 K, 101 kPa
Details	viscosity [mPa·s]
x1 = 0.022	1.045
x1 = 0.0281	1.079

CCCCCCCCCO + CN(C)C=O
Details	viscosity [mPa·s]
308.15 K, 101.3 kPa, x2 = 0.2201	2.965

CC(=O)N1CCOCC1 + CC(C)O
viscosity [mPa·s], 101 kPa
Details	293.15 K	303.15 K	313.15 K	323.15 K
x1 = 0.0522	3.709	2.981	2.398	2.058
x1 = 0.1274	4.822	4.027	3.33	2.819
x1 = 0.2153	6.051	5.18	4.35	3.754
x1 = 0.2813	6.792	5.862	4.934	4.274
x1 = 0.3169	7.055	6.069	5.112	4.418
x1 = 0.3909	7.575	6.548	5.454	4.686
x1 = 0.4569	7.956	6.872	5.68	4.85
x1 = 0.4999	8.044	6.922	5.666	4.794
x1 = 0.5444	8.301	7.14	5.816	4.903
x1 = 0.6113	8.421	7.202	5.778	4.799
x1 = 0.6342	8.356	7.116	5.656	4.656
x1 = 0.6888	8.479	7.191	5.651	4.597
x1 = 0.7522	8.573	7.229	5.593	4.478
x1 = 0.7976	8.575	7.191	5.487	4.328
x1 = 0.8555	8.612	7.176	5.389	4.174
x1 = 0.9231	8.559	7.065	5.172	3.892
x2 = 0.0188	8.649	7.104	5.163	3.893

CCC1CCCCC1 + CCCCO
viscosity [mPa·s], 100 kPa
Details	x2 = 0.1001	x2 = 0.2	x2 = 0.3001	x2 = 0.4	x2 = 0.4999	x2 = 0.5997	x2 = 0.7	x2 = 0.8	x2 = 0.9
293.15 K	0.867	0.908	0.984	1.1	1.254	1.451	1.718	2.051	2.436
298.15 K	0.813	0.849	0.912	1.007	1.142	1.314	1.549	1.817	2.157
303.15 K	0.758	0.793	0.851	0.929	1.045	1.202	1.399	1.625	1.911
308.15 K	0.716	0.744	0.794	0.861	0.958	1.08	1.25	1.465	1.711
313.15 K	0.666	0.692	0.729	0.791	0.871	0.98	1.121	1.303	1.515
318.15 K	0.628	0.646	0.681	0.734	0.803	0.894	1.018	1.174	1.351
323.15 K	0.584	0.604	0.633	0.678	0.737	0.814	0.924	1.058	1.219

CCCCCCCCCO + CCCCO
viscosity [mPa·s]
Details	293.15 K	298.15 K	308.15 K	318.15 K
101 kPa, x2 = 0.05	–	8.644	6.182	4.486
101 kPa, x2 = 0.1	–	8.219	5.878	4.303
101 kPa, x2 = 0.15	–	7.816	5.598	4.121
101 kPa, x2 = 0.2	–	7.431	5.336	3.941
101 kPa, x2 = 0.25	–	7.062	5.089	3.764
101 kPa, x2 = 0.3	–	6.704	4.852	3.589
101 kPa, x2 = 0.35	–	6.356	4.623	3.418
101 kPa, x2 = 0.4	–	6.016	4.398	3.251
101 kPa, x2 = 0.45	–	5.681	4.177	3.088
101 kPa, x2 = 0.5	–	5.353	3.957	2.929
101 kPa, x2 = 0.55	–	5.029	3.738	2.774
101 kPa, x2 = 0.6	–	4.71	3.52	2.623
101 kPa, x2 = 0.65	–	4.397	3.303	2.477
101 kPa, x2 = 0.7	–	4.091	3.088	2.335
101 kPa, x2 = 0.75	–	3.793	2.877	2.198
101 kPa, x2 = 0.8	–	3.506	2.672	2.064
101 kPa, x2 = 0.85	–	3.234	2.476	1.933
101 kPa, x2 = 0.9	–	2.977	2.292	1.806
101 kPa, x2 = 0.95	–	2.742	2.125	1.681
101.33 kPa, x2 = 0.1608	9.868	–	–	–
101.33 kPa, x2 = 0.2186	–	7.719	–	–
101.33 kPa, x2 = 0.3832	7.621	–	–	–
101.33 kPa, x2 = 0.4166	–	6.168	–	–
101.33 kPa, x2 = 0.5129	–	5.48	–	–
101.33 kPa, x2 = 0.5372	6.237	–	–	–
101.33 kPa, x2 = 0.6368	–	4.634	–	–
101.33 kPa, x2 = 0.6674	5.169	–	–	–
101.33 kPa, x2 = 0.7995	4.296	–	–	–
101.33 kPa, x2 = 0.8253	–	3.486	–	–
101.33 kPa, x2 = 0.8991	3.529	–	–	–
101.33 kPa, x2 = 0.9103	–	3.019	–	–
